How the values were obtained:
Assay in all cases: Transient transfection (transactivation) assay in CV-1 cells, GAL4-PPAR chimera, luciferase reporter
Type in all cases: cell-based
PPAR delta = biological target: T1, PPAR delta (Homo sapiens, UniProt Q03181)
T1 construct: expressed in transfected cells; host or cells: CV-1 cells
T1 sequence (Q03181 211-439 limits assumed): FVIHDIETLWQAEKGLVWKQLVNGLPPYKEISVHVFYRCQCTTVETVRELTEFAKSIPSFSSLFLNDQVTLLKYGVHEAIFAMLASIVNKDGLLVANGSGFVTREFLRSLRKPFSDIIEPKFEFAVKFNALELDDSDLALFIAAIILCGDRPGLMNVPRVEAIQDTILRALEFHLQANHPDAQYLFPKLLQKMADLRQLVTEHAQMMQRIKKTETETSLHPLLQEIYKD
Text: Compounds may be screened for functional potency in transient transfection assays in CV-1 cells or other cell types for their ability to activate the PPAR subtypes (transactivation assay). A previously established chimeric receptor system was utilized to allow comparison of the relative transcriptional activity of the receptor subtypes on the same synthetic response element and to prevent endogenous receptor activation from complicating the interpretation of results. […] The ligand binding domains for murine and human PPAR-alpha, PPAR-gamma, and PPAR-delta are each fused to the yeast transcription factor GAL4 DNA binding domain. CV-1 cells were transiently transfected with expression vectors for the respective PPAR chimera along with a reporter construct containing four or five copies of the GAL4 DNA binding site driving expression of luciferase. After 8-16 h, the cells are replated into multi-well assay plates and the media is exchanged to phenol-red free DME medium supplemented with 5% delipidated calf serum. 4 hours after replating, cells were treated with either compounds or 1% DMSO for 20-24 hours. Luciferase activity was then assayed with Britelite (Perkin Elmer) following the manufacturer's protocol and measured with either the Perkin Elmer Viewlux or Molecular Devices Acquest Xsee, for example, Kliewer, S. A., et. al. Cell 1995, 83, 813-819). Rosiglitazone is used as a positive control in the hPPAR-γ assay. Wy-14643 and GW7647 is used as a positive control in the hPPAR-α assay. GW501516 is used as the positive control in the hPPAR-δ assay.

PPAR alpha = biological target: T2, PPAR alpha (Homo sapiens, UniProt Q07869)
T2 construct: expressed in transfected cells; host or cells: CV-1 cells
T2 sequence (Q07869 239-466 limits assumed): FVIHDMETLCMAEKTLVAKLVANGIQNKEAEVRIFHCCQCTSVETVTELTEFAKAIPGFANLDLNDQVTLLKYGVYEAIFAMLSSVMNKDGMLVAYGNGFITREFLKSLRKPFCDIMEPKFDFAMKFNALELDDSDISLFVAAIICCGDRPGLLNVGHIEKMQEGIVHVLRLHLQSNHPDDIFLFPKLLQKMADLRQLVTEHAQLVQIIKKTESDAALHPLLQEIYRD
In short: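 GAL4 DNA-binding domain fused to PPAR ligand binding domain, co-transfected into CV-1 cells with a luciferase reporter carrying four or five GAL4 sites. Replated cells in phenol-red free DME with 5% delipidated calf serum were treated with compound or 1% DMSO for 20-24 hours; luciferase read for EC50 and efficacy.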

PPAR gamma = biological target: T3, PPAR gamma (Homo sapiens, UniProt P37231)
T3 construct: expressed in transfected cells; host or cells: CV-1 cells
T3 sequence (P37231 238-503 limits assumed): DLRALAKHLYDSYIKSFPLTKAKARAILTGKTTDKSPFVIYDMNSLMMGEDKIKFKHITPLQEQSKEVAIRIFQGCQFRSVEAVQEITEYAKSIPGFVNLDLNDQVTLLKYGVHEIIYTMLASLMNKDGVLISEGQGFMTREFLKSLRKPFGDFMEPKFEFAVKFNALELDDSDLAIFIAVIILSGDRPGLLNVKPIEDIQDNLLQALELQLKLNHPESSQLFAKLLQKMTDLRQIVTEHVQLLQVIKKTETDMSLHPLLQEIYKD

| Compound | EC50 (PPAR delta) [µM] | EC50 (PPAR alpha) [µM] | EC50 (PPAR gamma) [µM] |
| --- | --- | --- | --- |
| Cc1ccc(S(=O)(=O)N2CCCC(c3ccc(C(F)(F)F)cc3)C2)cc1CC(=O)O (stereo not drawn) [Example 15, {2-Methyl-5-[3-(4-trifluoromethyl-phenyl)-piperidine-1-sulfonyl]-phenyl}-acetic acid] | < 5 | 5 to 100 | 5 to 100 |
| Cc1ccc(Cl)cc1N1CCN(S(=O)(=O)c2cccc(CC(=O)O)c2)CC1 [Example 120, {3-[4-(5-Chloro-2-methyl-phenyl)-piperazine-1-sulfonyl]-phenyl}-acetic acid] | > 100 | > 100 | > 100 |
| O=C(O)Cc1cc(C(F)(F)F)cc(S(=O)(=O)N2CCN(c3ccc(C(F)(F)F)cn3)CC2)c1 [Example 203, {3-Trifluoromethyl-5-[4-(5-trifluoromethyl-pyridin-2-yl)-piperazine-1-sulfonyl]-phenyl}-acetic acid] | < 5 | 5 to 100 | 5 to 100 |
| Cc1ccc(S(=O)(=O)N2CCN(c3ccc(C(F)(F)F)nn3)CC2)cc1CC(=O)O [Example 74] | 5 to 100 | > 100 | > 100 |
| Cc1ccc(Cl)cc1N1CCN(S(=O)(=O)c2cc(CC(=O)O)ccc2C)CC1 [Example 151, {3-[4-(5-Chloro-2-methyl-phenyl)-piperazine-1-sulfonyl]-4-methyl-phenyl}-acetic acid] | > 100 | > 100 | 5 to 100 |
| Cc1ccc(S(=O)(=O)N2CCN(c3ccc(C#N)cn3)CC2)cc1CC(=O)O [Example 28, {5-[4-(5-Cyano-pyridin-2-yl)-piperazine-1-sulfonyl]-2-methyl-phenyl}-acetic acid] | < 5 | > 100 | > 100 |
| COc1ccc(S(=O)(=O)N2CCN(c3ccc(C(F)(F)F)cn3)CC2)cc1CC(=O)O [Example 76, {2-Methoxy-5-[4-(5-trifluoromethyl-pyridin-2-yl)-piperazine-1-sulfonyl]-phenyl}-acetic acid] | < 5 | > 100 | 5 to 100 |
| Cc1ccc(S(=O)(=O)N2CCN(c3cc(C(F)(F)F)ccn3)CC2)cc1CC(=O)O [Example 35, {2-Methyl-5-[4-(4-trifluoromethyl-pyridin-2-yl)-piperazine-1-sulfonyl]-phenyl}-acetic acid] | < 5 | 5 to 100 | 5 to 100 |
| C[C@@H]1[C@H](C)N(c2ccc(C(F)(F)F)cn2)CCN1S(=O)(=O)c1cccc(CC(=O)O)c1 (racemic) [Example 105, RS and SR-{3-[2,3-Dimethyl-4-(S-trifluoromethyl-pyridin-2-yl)-piperazine-1-sulfonyl]-phenyl}-acetic acid] | < 5 | > 100 | < 5 |
| O=C(O)Cc1cccc(S(=O)(=O)N2CCN(C(=O)c3ccco3)CC2)c1 [Example 136, {3-[4-(Furan-2-carbonyl)-piperazine-1-sulfonyl]-phenyl}-acetic acid] | > 100 | > 100 | > 100 |
| O=C(O)Cc1cccc(S(=O)(=O)N2CCN(C3CCCCC3)CC2)c1 [Example 130, [3-(4-Cyclohexyl-piperazine-1-sulfonyl)-phenyl]-acetic acid] | > 100 | > 100 | 5 to 100 |
| O=C(O)Cc1cccc(S(=O)(=O)N2CCN(c3cccc(Br)c3)CC2)c1 [Example 125, {3-[4-(3-Bromo-phenyl)-piperazine-1-sulfonyl]-phenyl}-acetic acid] | 5 to 100 | 5 to 100 | 5 to 100 |
| Cc1cc(CC(=O)O)cc(S(=O)(=O)N2CCN(c3ccc(OC(F)(F)F)cc3)CC2)c1 [Example 223, {3-Methyl-5-[4-(4-trifluoromethoxy-phenyl)-piperazine-1-sulfonyl]-phenyl}-acetic acid] | < 5 | 5 to 100 | 5 to 100 |
| Cc1ccc(S(=O)(=O)N2[C@H](C)CN(c3ccc(OC(F)(F)F)cc3)C[C@@H]2C)cc1CC(=O)O [Example 100, {5-[2,6-Dimethyl-4-(4-trifluoromethoxy-phenyl)-piperazine-1-sulfonyl]-2-methyl-phenyl}-acetic acid] | < 5 | 5 to 100 | 5 to 100 |
| N#Cc1ccccc1N1CCN(S(=O)(=O)c2cccc(CC(=O)O)c2)CC1 [Example 133, {3-[4-(2-Cyano-phenyl)-piperazine-1-sulfonyl]-phenyl}-acetic acid] | > 100 | > 100 | > 100 |
| Cc1ccc(S(=O)(=O)N2CC=C(c3ccc(C(F)(F)F)cn3)CC2)cc1CC(=O)O [Example 66, [2-Methyl-5-(5-trifluoromethyl-3′,6′-dihydro-2^1H-[2,4′]bipyridinyl-1′-sulfonyl)-phenyl]-acetic acid] | < 5 | 5 to 100 | > 100 |
| Cc1cc(CC(=O)O)cc(S(=O)(=O)N2[C@H](C)CN(c3ccc(C(F)(F)F)c(F)c3)C[C@@H]2C)c1 [Example 222] | < 5 | 5 to 100 | > 100 |
| Cc1ccc(S(=O)(=O)N2CCN(c3ccc(C(F)(F)F)cn3)C(C)(C)C2)cc1CC(=O)O [Example 38, {5-[3,3-Dimethyl-4-(5-trifluoromethyl-pyridin-2-yl)-piperazine-1-sulfonyl]-2-methyl-phenyl}-acetic acid] | < 5 | > 100 | < 5 |
| Cc1ccc(S(=O)(=O)N2CCN(c3nc(Cl)c(Cl)s3)CC2)cc1CC(=O)O [Example 51, {5-[4-(4,5-Dichloro-thiazol-2-yl)-piperazine-1-sulfonyl]-2-methyl-phenyl}-acetic acid] | < 5 | 5 to 100 | < 5 |
| C[C@H]1CN(c2ccc(OC(F)(F)F)cc2)CCN1S(=O)(=O)c1cccc(CC(=O)O)c1 [Example 226, {3-[2-(s)-Methyl-4-(4-trifluoromethoxy-phenyl)-piperazine-1-sulfonyl]-phenyl}-acetic acid] | < 5 | 5 to 100 | 5 to 100 |
| COc1ccccc1N1CCN(S(=O)(=O)c2cccc(CC(=O)O)c2)CC1 [Example 129, {3-[4-(2-Methoxy-phenyl)-piperazine-1-sulfonyl]-phenyl}-acetic acid] | > 100 | > 100 | > 100 |
| O=C(O)CCc1cccc(S(=O)(=O)N2CCN(c3ccc(Cl)cc3)CC2)c1 [Example 187, 3-{3-[4-(4-Chloro-phenyl)-piperazine-1-sulfonyl]-phenyl}-propionic acid] | < 5 | > 100 | 5 to 100 |
| Cc1ccc(CC(=O)O)cc1S(=O)(=O)N1CCN(c2cnccn2)CC1 [Example 163, [4-Methyl-3-(2,3,5,6-tetrahydro-[1,2]bipyrazinyl-4-sulfonyl)-phenyl]-acetic acid] | > 100 | > 100 | > 100 |
| Cc1ccc(S(=O)(=O)N2CCN(c3ccc(C(F)(F)F)cn3)C(C)C2)cc1CC(=O)O (stereo not drawn) [Example 23, [2-Methyl-5-[3-methyl-4-(5-trifluoromethyl-pyridin-2-yl)-piperazine-1-sulfonyl]-phenyl}-acetic acid] | < 5 | 5 to 100 | < 5 |
| Cc1ccc(S(=O)(=O)N2CCN(c3ncc(C(F)(F)F)cn3)CC2)cc1CC(=O)O [Example 59, {2-Methyl-5-[4-(5-trifluoromethyl-pyrimidin-2-yl)-piperazine-1-sulfonyl]-phenyl}-acetic acid] | < 5 | < 5 | < 5 |

Reference: patent US20050234046A1 (Kalypsys, Inc., priority 2004, published 2005)
